Data taken from PubChem BioAssay (NCI).
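Values below derive from 48-hour exposures of cells grown in 96-well plates, with endpoints linearly interpolated between the two concentrations bracketing the appropriate inhibition level. GI50 is the concentration that inhibits growth by half. TGI marks complete inhibition of growth.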

Tests used:
Experiment in all cases: DTP human tumour cell line panel, 48 h
MCF7 breast = system: MCF7 breast
NCI-H522 lung = system: NCI-H522 lung
RPMI-8226 leukemia = system: RPMI-8226 leukemia
MALME-3M melanoma = system: MALME-3M melanoma
MDA-MB-435 = system: MDA-MB-435
RXF 393 renal = system: RXF 393 renal
SF-539 CNS = system: SF-539 CNS
SF-268 CNS = system: SF-268 CNS
CAKI-1 renal = system: CAKI-1 renal
SK-OV-3 ovarian = system: SK-OV-3 ovarian

Row | Compound | GI50 (MCF7 breast) | TGI (MCF7 breast) | GI50 (NCI-H522 lung) | TGI (NCI-H522 lung) | GI50 (RPMI-8226 leukemia) | TGI (RPMI-8226 leukemia) | GI50 (MALME-3M melanoma) | TGI (MALME-3M melanoma) | GI50 (MDA-MB-435) | TGI (MDA-MB-435) | GI50 (RXF 393 renal) | TGI (RXF 393 renal) | GI50 (SF-539 CNS) | TGI (SF-539 CNS) | GI50 (SF-268 CNS) | TGI (SF-268 CNS) | GI50 (CAKI-1 renal) | TGI (CAKI-1 renal) | GI50 (SK-OV-3 ovarian) | TGI (SK-OV-3 ovarian)
1 | C=CC(=O)N1CCN(c2ccc3cccc(NC(=O)c4cnc(C)cn4)c3n2)CC1 | 3.44 µM | > 100 µM | 1.99 µM | 17.8 µM | 1.5 µM | 6.52 µM | 2.89 µM | 15.9 µM | 3.67 µM | 32.9 µM | 1.45 µM | 9.46 µM | 3.16 µM | 15.3 µM | 3.67 µM | 49.2 µM | 0.555 µM | 11.5 µM |  | 
2 | O[C@H]1CO[C@H]2[C@@H]1OC[C@@H]2Oc1ccc(Nc2ccnc(Nc3ccc(O[C@H]4CO[C@H]5[C@@H]4OC[C@@H]5O)c(Cl)c3)n2)cc1Cl | 1.73 µM | 5.44 µM | 1.17 µM | 3.69 µM | 1.05 µM | 3.24 µM | 1.09 µM | 3.09 µM | 2.31 µM | 10 µM | 1.5 µM | 3.8 µM | 2.22 µM | 7.16 µM | 1.63 µM | 4.98 µM | 1.79 µM | 10.2 µM | 2.53 µM | 10 µM
3 | Cc1cc2c3ccc(C)[n+](C)c3ccc2n1C | 4.07 µM | 90 µM | 4.83 µM | 29.3 µM | 1.32 µM | 23.3 µM | 3.6 µM | 12.7 µM | 5.12 µM | 21.9 µM | 4.01 µM | 44.2 µM | 3.89 µM | 21.3 µM | 2.99 µM | 15.9 µM | 30.5 µM | > 100 µM | 2.88 µM | 9.41 µM
4 | CC1=C(CCC(C)N(C)Cc2ccc(OCCCN3CCCC3)cc2)C(C)(C)CCC1 (stereo unspecified) | 1.63 µM | 3.65 µM | 2.33 µM | 4.99 µM | 2.9 µM | 8.65 µM | 1.67 µM | 3.23 µM | 1.43 µM | 2.85 µM | 2.59 µM | 10.2 µM | 1.66 µM | 3.28 µM | 4.07 µM | 17.5 µM | 11.3 µM | 24.3 µM | 11.4 µM | 23.8 µM
5 | CCN1CCC(CCOC)(CN2c3ccccc3Sc3ccc(Cl)cc32)C1 (stereo unspecified) | 1.86 µM | 3.54 µM | 1.74 µM | 3.59 µM | 2.52 µM | 5.7 µM | 1.91 µM | 3.6 µM | 1.74 µM | 3.35 µM | 1.77 µM | 4.03 µM | 1.76 µM | 3.51 µM | 2.73 µM | 8.67 µM | 1.64 µM | 3.11 µM | 1.91 µM | 3.88 µM
6 | CNC(=O)OCc1c(COC(=O)NC)c(C)n(-c2ccc(Br)cc2)c1C |  | 25.9 µM |  | 25.9 µM |  | 31.6 µM |  | 36.3 µM |  | 34 µM |  | 19.8 µM |  | 30.3 µM |  | 34.5 µM |  | > 100 µM |  | 34.2 µM
7 | C=C1CC[C@@H]2[C@](C)(COC(C)=O)[C@@H](O)CC[C@@]2(C)[C@@H]1COc1ccc2ccc(=O)oc2c1 | > 100 µM | > 100 µM | > 100 µM | > 100 µM | 26.3 µM | > 100 µM | > 100 µM | > 100 µM | > 100 µM | > 100 µM | 14.7 µM | 58.9 µM | 53.3 µM | > 100 µM | > 100 µM | > 100 µM | > 100 µM | > 100 µM |  | 
